Results reported in patent US20170066759A1, “AROMATIC 5-MEMBERED HETEROCYCLIC DERIVATIVE HAVING TRPV4-INHIBITING ACTIVITY” (Shionogi & Co., Ltd., priority 2012, published 2017).
pIC50: −log10 of the molar value. Where two headings read alike, the source gives them in different places.

Molecular target: T1, human TRPV4 (hTRPV4/CHO cells) (Homo sapiens, UniProt Q9HBA0)
T1 construct: expressed in transfected cells; host or cells: CHO-K1
Assay: Test Example 2: TRPV4 inhibitory activity (IC50 value), 4α-PDD stimulation, Fluo3 calcium fluorescence (FLIPR)
Assay type: cell-based
Experimental: TRPV4 Inhibitory Activity (IC50 Value)
For each compound, TRPV4 inhibitory activity was measured using cells.
(Method) The procedures of evaluating TRPV4 inhibitory activity of a compound are as follows.
(1) TRPV4 inhibitory activity was measured using CHO-K1 cells stably expressing human TRPV4 (hTRPV4/CHO cells).
(2) In the day before the experimental day, frozen cell were thawed and washed with the culture medium (MEM-α, 10% FBS, 4 mmol/L L-Glutamine, 50 unit Penicillin, 50 μg/mL Streptomycin). Then cells were suspended in the culture medium.
(3) The 384-well plates which hTRPV4/CHO cells were seeded at densities of 4000 cells/well in the culture medium and cultured in a CO2 incubator in the presence of 5% CO2 at 37° C. for 24 hours was used as assay plates.
(4) The assay plate was washed with assay buffer (Hanks, 20 mmol/L HEPES, 2.5 mmol/L probenecid, pH7.4), and the buffer were remained at 20 μL/well.
(5) 10 μl of dye loading buffer (9 μmol/L Fluo 3-AM, 0.09% Pluronic F-127, 1% BSA/assay buffer) was added to each well, then the assay plate was incubated in a CO2 incubator in the presence of 5% CO2 at 37° C. for one hour. (final conc.; 3 μmol/L Fluo3-AM).
(6) The assay plate was washed with the assay buffer, and the buffers were remained at 20 μL/well. Then the assay plate was incubated for 10 min at room temperature.
(7) 20 μL of diluted compound solution was added to each well of assay plate, and mixed with built-in Pipette and Mixer of the Fluorescence analysis system FLIPR 384 (Molecular devices).
(8) After incubation for 4 min, 25 μL of 4α-PDD solution were applied to each well of assay plate and mixed with the FLIPR TETRA. (final conc.; 600 nmol/L 4α-PDD)
(9) The fluorescent intensity was measured with FLIPR TETRA system for 7 min from the point of time addition the compound solution, at Ex 488 nm, Em 510-570 nm wavelength.
TRPV4 inhibitory activity (IC50 value) of a compound was calculated according to the following procedure.
(10) In the presence of the compound, the difference between maximal and minimal of fluorescent intensity value for 3 min from just before addition of 4α-PDD solution was calculated, and it was referred as Max-Min value. Max-Min value of the Ruthenium Red at 20 μM was defined as 100% inhibitory activity, Max-Min value in the absence of the compound was defined as 0% inhibitory activity. TRPV4 inhibitory activity of the compound was calculated by the following formula.
(1−(Max−Min value of the compound−100% inhibitory activity)/(0% inhibitory activity−100% inhibitory activity))×100
(11) Inhibitory activity was calculated at 10 points with twice serial dilution, in the final concentration of the compound from 3.85 μg/mL to 7.5 ng/mL, the IC50 value (nmol/L) was calculated by logistic approximation method.

[1] = Test Example 2, 4α-PDD stimulation, read-out: Test 2 IC50

T1 sequence (Q9HBA0 whole entry): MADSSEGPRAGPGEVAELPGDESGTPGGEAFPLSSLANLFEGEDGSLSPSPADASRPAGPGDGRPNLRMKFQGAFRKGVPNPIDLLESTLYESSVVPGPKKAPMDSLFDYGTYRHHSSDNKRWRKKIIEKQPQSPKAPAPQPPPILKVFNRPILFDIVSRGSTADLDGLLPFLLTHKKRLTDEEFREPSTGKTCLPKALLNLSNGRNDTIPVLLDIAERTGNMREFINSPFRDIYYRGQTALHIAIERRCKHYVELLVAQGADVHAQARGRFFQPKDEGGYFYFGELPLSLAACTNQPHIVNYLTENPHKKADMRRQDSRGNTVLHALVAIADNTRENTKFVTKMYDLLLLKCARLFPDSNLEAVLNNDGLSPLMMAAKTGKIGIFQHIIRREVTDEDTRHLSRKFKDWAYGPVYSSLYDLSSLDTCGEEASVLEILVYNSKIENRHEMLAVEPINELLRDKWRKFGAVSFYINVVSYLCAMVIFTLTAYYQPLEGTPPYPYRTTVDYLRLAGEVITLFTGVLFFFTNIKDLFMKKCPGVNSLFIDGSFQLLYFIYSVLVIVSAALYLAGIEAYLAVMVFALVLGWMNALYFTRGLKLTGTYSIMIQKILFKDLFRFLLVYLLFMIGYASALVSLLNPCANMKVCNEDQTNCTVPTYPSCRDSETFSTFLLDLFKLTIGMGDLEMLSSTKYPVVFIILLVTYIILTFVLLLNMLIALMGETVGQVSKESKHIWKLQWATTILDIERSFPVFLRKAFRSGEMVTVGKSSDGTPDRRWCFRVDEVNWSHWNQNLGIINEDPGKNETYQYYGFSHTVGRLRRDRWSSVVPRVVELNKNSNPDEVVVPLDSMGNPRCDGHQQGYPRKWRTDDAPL

SMILES | pIC50 [1] | pIC50 (600 nmol/L 4α-PDD, Fluo3-AM, read-out: TRPV4 inhibitory activity (IC50 value))
O=C(Nc1nc(-c2ccc(Br)s2)cs1)c1ccc(Br)s1 [II-14] | 5.10 to 6.00 | 
O=C(Nc1nc(-c2cccs2)cs1)C1c2ccccc2Oc2ccccc21 [II-15] | 5.10 to 6.00 | 
Cc1ccc(-c2csc(NC(=O)COc3ccc(Br)cc3)n2)s1 [II-16] | 6.00 to 7.00 | 
O=C(CSc1ccccc1)Nc1nc(-c2ccc(Br)s2)cs1 [II-17] | 5.10 to 6.00 | 
C/C(=N\Nc1nc(-c2cccs2)cs1)c1ccc(Cl)c(Cl)c1 [II-18] | 5.10 to 6.00 | 
COc1ccc(/C(C)=N/Nc2nc(-c3sc(C)nc3C)cs2)cc1 [II-19] | 6.00 to 7.00 | 
Cc1cccc(Nc2nc(-c3sc(N)nc3C)cs2)c1 [II-20] | 6.00 to 7.00 | 
Cc1nc(N)sc1-c1csc(Nc2ccc(Br)cc2Br)n1 [II-21] | 5.10 to 6.00 | 
Cc1nc(C)c(-c2csc(Nc3ccccn3)n2)s1 [II-22] | > 7.00 | 7.14
Cc1ccnc(Nc2nc(-c3sc(N)nc3C)cs2)c1 [II-23] | 5.10 to 6.00 | 
C=CCNc1nc(-c2sc(C)nc2C)cs1 [II-24] | 5.10 to 6.00 | 
